{
  "source": "patent US20240327393A1",
  "about": "(SIRONAX LTD., priority 2021, published 2024)",
  "data": [
    {"test_system": "HT-1080 (ATCC, CCL-121) cells", "assay": "HT-1080 cell viability assay with ferroptosis inducer RSL3 (Cell Titer-Glo)", "format": "cell-based", "conditions": "Homo sapiens; HT-1080 cells treated with RSL3; 3-fold, 10-point dilution, 1.1 μM highest concentration; Table 2; read-out: EC50 (nM), ferroptosis inhibitory activity", "outline": "(§1)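 EC50 was derived by sigmoidal dose-response regression of CellTiter-Glo luminescence viability, expressed relative to untreated wells. Compounds were tested in a ten-point, threefold dilution series (highest 1.1 μM) in the presence of the ferroptosis inducer RSL3. HT-1080 cells had been seeded at 6000 per well and grown overnight first.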", "units": {"EC50": "nM"}, "values": [
      {"compound": "CN1Cc2cc(Nc3ccc(N4CCC(C(F)(F)F)CC4)cc3)ccc2C1=O", "note": "[Compound 173, 2-methyl-5-((4-(4-(trifluoromethyl)piperidin-1-yl)phenyl)amino) isoindolin-1-one]", "EC50": "0.1 to 100"},
      {"compound": "c1ccc(Nc2ccc3c(c2)CCNC3)cc1", "note": "[Compound 104, N-phenyl-1,2,3,4-tetrahydroisoquinolin-6-amine]", "EC50": "0.1 to 100"},
      {"compound": "CN1C(=O)COc2cc(Nc3ccc4c(c3)CCC4(C)C)ccc21", "note": "[Compound 42, 7-((1,1-dimethyl-2,3-dihydro-1H-inden-5-yl)amino)-4-methyl-2H-benzo[b][1,4]o xazin-3(4H)-one]", "EC50": "0.1 to 100"},
      {"compound": "CNCCN1C(=O)COc2cc(Nc3ccc(C4CC(C)OC(C)C4)cc3)ccc21", "note": "(centres unmarked) [Compound 54, 7-((4-(2,6-dimethyltetrahydro-2H-pyran-4-yl)phenyl)amino)-4-(2-(methylamino)ethyl)-2H-benzo[b][1,4]oxazin-3(4H)-one]", "EC50": "0.1 to 100"},
      {"compound": "Cc1cc(Nc2ccc3c(c2)OCC(=O)N3)ccc1N1CCC(C(F)(F)F)CC1", "note": "[Compound 101, 7-((3-methyl-4-(4-(trifluoromethyl)piperidin-1-yl)phenyl)amino)-2H-benzo[b][1,4]oxazin-3(4H)-one]", "EC50": "100 to 1000"},
      {"compound": "CC1CN(c2ccc(Nc3ccc4c(c3)CNC4)cc2)CC(C)O1", "note": "(centres unmarked) [Compound 431, N-(4-(2,6-dimethylmorpholino)phenyl)isoindolin-5-amine]", "EC50": "0.1 to 100"},
      {"compound": "Cc1cc(Nc2cc(F)c3c(c2)OCC(=O)N3C)ccc1N1CC(C)OC(C)C1", "note": "(centres unmarked) [Compound 132, 7-((4-(2,6-dimethylmorpholino)-3-methylphenyl)amino)-5-fluoro-4-methyl-2H-benzo[b][1,4]oxazin-3(4H)-one]", "EC50": "0.1 to 100"},
      {"compound": "CC1CCCCN1c1ccc(Nc2ccc3c(c2)CN(C)C3=O)cc1", "note": "(centres unmarked) [Compound 240, 2-methyl-5-((4-(2-methylpiperidin-1-yl)phenyl)amino)isoindolin-1-one]", "EC50": "0.1 to 100"},
      {"compound": "CN(C)CCN1C(=O)COc2cc(Nc3ccc(N4CCC(C(F)(F)F)CC4)cc3)ccc21", "note": "[Compound 94, 4-(2-(dimethylamino)ethyl)-7-((4-(4-(trifluoromethyl)piperidin-1-yl)phenyl)amino)-2H-benzo[b][1,4]oxazin-3(4H)-one]", "EC50": "0.1 to 100"},
      {"compound": "CCN1C(=O)COc2cc(Nc3ccc(N4CCC(C(F)(F)F)CC4)nc3)ccc21", "note": "[Compound 24, 4-ethyl-7-((6-(4-(trifluoromethyl)piperidin-1-yl)pyridin-3-yl)amino)-2H-benzo[b][1,4]oxazin-3(4H)-one]", "EC50": "0.1 to 100"},
      {"compound": "CN(C)CCn1c(=O)oc2ccc(Nc3ccc(N4CCC(C(F)(F)F)CC4)cc3)cc21", "note": "[Compound 429, 3-(2-(dimethylamino)ethyl)-5-((4-(4-(trifluoromethyl)piperidin-1-yl)phenyl)amino)benzo[d]oxazol-2(3H)-one]", "EC50": "0.1 to 100"},
      {"compound": "CNCCCn1cc2cc(Nc3ccc(N4CCC(C(F)(F)F)CC4)cc3)ccc2n1", "note": "[Compound 415, 2-(3-(methylamino)propyl)-N-(4-(4-(trifluoromethyl)piperidin-1-yl)phenyl)-2H-indazol-5-amine]", "EC50": "0.1 to 100"},
      {"compound": "CN1Cc2ccc(Nc3ccc(N4CCC(C(F)(F)F)CC4)cc3)cc2C1=O", "note": "[Compound 171, 2-methyl-6-((4-(4-(trifluoromethyl)piperidin-1-yl)phenyl)amino) isoindolin-1-one]", "EC50": "0.1 to 100"},
      {"compound": "O=C1c2ccc(Nc3ccc(N4CCC(C(F)(F)F)CC4)cc3)cc2CN1C1CC1", "note": "[Compound 209, 2-cyclopropyl-5-((4-(4-(trifluoromethyl)piperidin-1-yl)phenyl)amino) isoindolin-1-one]", "EC50": "0.1 to 100"},
      {"compound": "COc1cc(Nc2ccc3c(c2)OCC(=O)N3C)ccc1N1CC(C)OC(C)C1", "note": "(centres unmarked) [Compound 70, 7-((4-(2,6-dimethylmorpholino)-3-methoxyphenyl)amino)-4-methyl-2H-benzo[b][1,4]oxazin-3(4H)-one]", "EC50": "0.1 to 100"},
      {"compound": "CN1C(=O)COc2cc(Nc3ccc4c(c3)C(C)(C)CC4(C)C)ccc21", "note": "[Compound 39, 4-methyl-7-((1,1,3,3-tetramethyl-2,3-dihydro-1H-inden-5-yl)amino)-2H-benzo[b][1,4]oxazin-3(4H)-one]", "EC50": "100 to 1000"},
      {"compound": "CC1CCN(c2ccc(Nc3ccc4c(c3)OCC(=O)N4C)cc2)CC1", "note": "[Compound 1, 4-methyl-7-((4-(4-methylpiperidin-1-yl)phenyl)amino)-2H-benzo[b][1,4]oxazin-3(4H)-one]", "EC50": "0.1 to 100"},
      {"compound": "Cn1c(=O)oc2cc(Nc3ccc(N4C[C@H]5CC[C@@H]4C5)cc3)ccc21", "note": "[Compound 315, 6-((4-((1R,4S)-2-azabicyclo[2.2.1]heptan-2-yl)phenyl)amino)-3-methylbenzo[d] oxazol-2(3H)-one]", "EC50": "0.1 to 100"},
      {"compound": "CC1CCN(c2ccc(Nc3ccc4c(c3)N(C)CC(=O)N4C)cc2)CC1", "note": "[Compound 102, 1,4-dimethyl-6-((4-(4-methylpiperidin-1-yl)phenyl)amino)-3,4-dihydroquinoxalin-2(1H)-one]", "EC50": "0.1 to 100"},
      {"compound": "Cc1nc2ccc(Nc3ccc(N4CCC(C(F)(F)F)CC4)cc3)cc2o1", "note": "[Compound 323, 2-methyl-N-(4-(4-(trifluoromethyl)piperidin-1-yl)phenyl)benzo[d]oxazol-6-amine]", "EC50": "0.1 to 100"},
      {"compound": "CC1CN(c2ccc(Nc3cc(F)c4c(c3)OCC(=O)N4C)cc2)CC(C)O1", "note": "(centres unmarked) [Compound 87, 7-((4-(2,6-dimethylmorpholino)phenyl)amino)-5-fluoro-4-methyl-2H-benzo[b][1,4]oxazin-3(4H)-one]", "EC50": "0.1 to 100"},
      {"compound": "Cc1ccc(Cl)c(Nc2ccc3c(c2)CN(C)C3=O)c1", "note": "[Compound 230, 5-((2-chloro-5-methylphenyl)amino)-2-methylisoindolin-1-one]", "EC50": "0.1 to 100"},
      {"compound": "CC1CN(c2ccc(Nc3ccc4c(c3)oc(=O)n4CCN(C)C)cc2)CC(C)O1", "note": "(centres unmarked) [Compound 424]", "EC50": "0.1 to 100"},
      {"compound": "CC1CCN(c2ccc(Nc3ccc4c(c3)n(C)c(=O)n4C)cc2Cl)CC1", "note": "[Compound 298, 5-((3-chloro-4-(4-methylpiperidin-1-yl)phenyl)amino)-1,3-dimethyl-1,3-dihydro-2H-benzo[d]imidazol-2-one]", "EC50": "0.1 to 100"},
      {"compound": "CC1CN(c2ncc(Nc3ccc4c(c3)OCC(=O)N4C)cn2)CC(C)O1", "note": "(centres unmarked) [Compound 66, 7-((2-(2,6-dimethylmorpholino)pyrimidin-5-yl)amino)-4-methyl-2H-benzo[b][1,4]oxazin-3(4H)-one]", "EC50": "0.1 to 100"},
      {"compound": "Cn1c(=O)n(C)c2cc(Nc3ccc4nccn4c3)ccc21", "note": "[Compound 310, 5-(imidazo[1,2-a]pyridin-6-ylamino)-1,3-dimethyl-1,3-dihydro-2H-benzo[d]imidazol-2-one]", "EC50": "0.1 to 100"},
      {"compound": "CN1C(=O)COc2cc(Nc3ccc(N4CCC(C(F)(F)F)CC4)c(F)c3)ccc21", "note": "[Compound 77, 7-((3-fluoro-4-(4-(trifluoromethyl)piperidin-1-yl)phenyl)amino)-4-methyl-2H-benzo[b][1,4]oxazin-3(4H)-one]", "EC50": "0.1 to 100"}
    ]},
    {"test_system": "HT-1080 (ATCC, CCL-121) cells", "assay": "HT-1080 cell viability assay with ferroptosis inducer RSL3 (Cell Titer-Glo)", "format": "cell-based", "conditions": "Homo sapiens; HT-1080 cells treated with RSL3; 3-fold, 10-point dilution, 1.1 μM highest concentration; Table 3; read-out: EC50 (nM), ferroptosis inhibitory activity", "outline": "as §1", "units": {"EC50": "nM"}, "values": [
      {"compound": "Cc1cc(N2CCC(C(F)(F)F)CC2)c(F)cc1Nc1ccc2c(c1)OCC(=O)N2", "note": "[Compound 488, 7-((5-fluoro-2-methyl-4-(4-(trifluoromethyl)piperidin-1-yl)phenyl)amino)-2H-benzo[b][1,4]oxazin-3(4H)-one]", "EC50": "0.1 to 100"},
      {"compound": "COc1cc(Nc2cnc3c(c2)OCC(=O)N3)c(C)cc1N1CCC(C(F)(F)F)CC1", "note": "[Compound 547, 7-((5-methoxy-2-methyl-4-(4-(trifluoromethyl)piperidin-1-yl)phenyl)amino)-2H-pyrido[3,2-b][1,4]oxazin-3(4H)-one]", "EC50": "0.1 to 100"},
      {"compound": "Cc1cc(N2CCC(C)CC2)ccc1Nc1ccc2c(c1)OCC(=O)N2", "note": "[Compound 491, 7-((2-methyl-4-(4-methylpiperidin-1-yl)phenyl)amino)-2H-benzo[b][1,4]oxazin-3(4H)-one]", "EC50": "0.1 to 100"},
      {"compound": "Cc1cc(N2CCC(O)(C(F)(F)F)CC2)ccc1Nc1cc(C)c2c(c1)OCC(=O)N2", "note": "[Compound 511, 7-((4-(4-hydroxy-4-(trifluoromethyl)piperidin-1-yl)-2-methylphenyl)amino)-5-methyl-2H-benzo[b][1,4]oxazin-3(4H)-one]", "EC50": "0.1 to 100"},
      {"compound": "CC1CCN(c2ccc(Nc3ccc4c(c3)OCC(=O)N4)cc2)CC1", "note": "[Compound 507, 7-((4-(4-methylpiperidin-1-yl)phenyl)amino)-2H-benzo[b][1,4]oxazin-3(4H)-one]", "EC50": "0.1 to 100"},
      {"compound": "Cc1cc(N2CCC(C(F)(F)F)C2)ccc1Nc1ccc2c(c1)OCC(N)C(=O)N2", "note": "(centres unmarked) [Compound 613, 3-amino-8-((2-methyl-4-(3-(trifluoromethyl)pyrrolidin-1-yl)phenyl)amino)-2,3-dihydrobenzo[b][1,4]oxazepin-4(5H)-one]", "EC50": "0.1 to 100"},
      {"compound": "CC[C@@H]1CN(c2ccc(Nc3ccc4c(c3)OCC(=O)N4)c(C)n2)C[C@H](CC)O1", "note": "[Compound 499, 7-((6-((2S,6R)-2,6-diethylmorpholino)-2-methylpyridin-3-yl)amino)-2H-benzo[b][1,4]oxazin-3(4H)-one]", "EC50": "0.1 to 100"},
      {"compound": "Cc1cc(N2CCC(C(F)(F)F)CC2)ccc1Nc1ccn2ncc(C(N)=O)c2c1", "note": "[Compound 625, 5-((2-methyl-4-(4-(trifluoromethyl)piperidin-1-yl)phenyl)amino) pyrazolo[1,5-a]pyridine-3-carboxamide]", "EC50": "0.1 to 100"},
      {"compound": "Cc1nc(N2CC(C)OC(C)(C)C2)ccc1Nc1ccc2c(c1)OCC(=O)N2", "note": "(centres unmarked) [Compound 520, 7-((2-methyl-6-(2,2,6-trimethylmorpholino)pyridin-3-yl)amino)-2H-benzo[b][1,4]oxazin-3(4H)-one]", "EC50": "0.1 to 100"},
      {"compound": "COc1cc(Nc2ccc3c(c2)OCC(=O)N3)ccc1N1CCC(C(F)(F)F)CC1", "note": "[Compound 485, 7-((3-methoxy-4-(4-(trifluoromethyl)piperidin-1-yl)phenyl)amino)-2H-benzo[b][1,4]oxazin-3(4H)-one]", "EC50": "0.1 to 100"},
      {"compound": "Cc1cc(N2CCC(C(F)(F)F)CC2)ccc1Nc1cc2c(cc1C)N(C)C(=O)CO2", "note": "[Compound 477, 4,6-dimethyl-7-((2-methyl-4-(4-(trifluoromethyl)piperidin-1-yl)phenyl)amino)-2H-benzo[b][1,4]oxazin-3(4H)-one]", "EC50": "0.1 to 100"}
    ]}
  ]
}
